Where two headings read alike, the source gives them in different places.
Columns and labels:
GL-261 cells = assay: Cell death induction in GL-261 glioma cells (PI staining, FACS); type: cell-based, mouse; details: GL-261, serum-free medium, 6 h
Protocol: (§1) Cells in suspension were counted (2×10^6/ml) and treated on the same day whereas adherent cells were counted and seeded (1.5−2×10^5/ml) in 12 wells plate 16-24 h before treatment. Cells in suspension or adherent cells were incubated in serum-free medium (200 μl or 500 μl, respectively) with various concentrations of peptide of interest (for 90 min or 6 h, respectively) at 37° C. in the presence of 5% CO2. Cells were collected (adherent cells by trypsinization), centrifuged (1500×g, 5 min), washed once with PBS and analyzed for cell death using propidium iodide (PI) staining and flow cytometer (Beckton-Dickinson, San Jose, Calif.) and BD CellQuest Pro software.
(§2) PI solution was diluted with PBS to a final concentration of 0.5 mg/ml. 2.5 μl of the PI solution were added to each FACS tube, and the tubes were vortexed gently to homogenize the cell suspension. Cell viability was measured in the FACS channel FL3 and data were analyzed using CellQuest Pro software.

B16F10.0 melanoma cells = assay: Cell death induction in B16F10.0 melanoma cells (PI staining, FACS); type: cell-based, mouse; details: B16F10.0, serum-free medium, 6 h
Protocol: as §1, §2
Cell death was analyzed by PI staining and FACS.

THP-1 cells = assay: Cell death induction in THP-1 leukemia cells (PI staining, flow cytometry); type: cell-based, human; details: THP-1, serum-free medium, 90 min, 37° C.
Protocol: as §1, §2
Cells of human monocytic cell line derived from an acute monocytic leukemia patient (THP-1 cells, 400,000 cells per well) were used in this experiment.

BNL1ME cell line = type: cell-based; details: serum-free medium, 6 h; for EC50: read-out: EC50 of cell death
Protocol: as §1, §2
Cells were incubated in a serum-free medium with each peptide type for 6 h at 37° C. in the presence of 5% CO2.

PANC-1 cells = assay: Cell death induction in PANC-1 pancreatic cancer cells (PI staining, flow cytometry); type: cell-based, human; details: PANC-1, serum-free medium, 6 h
Protocol: as §1, §2
(§3) The human (PANC-1) and mouse (PANC-2) cancerous pancreatic cells were used in this assay. […] Cell death was analyzed by PI staining and percentage of cell death was measured by Flow Cytometery.

U-87MG = type: cell-based; details: Example 7, n=3, read-out: concentration for inducing 50% cell death (EC50)
Protocol: Human primary glioblastoma tumor-derived cell lines (U-87MG), at 6×10^5 cells per ml were incubated in a serum-free medium with the examined peptide at several concentrations for 6 h at 37° C. in the presence of 5% CO2. […] The cells were then trypsinized, centrifuged (1500×g, 5 min), washed with PBS and analyzed for cell death using PI staining and flow cytometer (Beckton-Dickinson, San Jose, Calif.) and BD CellQuest Pro software.

U-87MG cells = assay: Intracranial-orthotopic U-87MG xenograft in nude mice (MRI tumor volume, survival); type: in vivo, mouse; details: administrated intravenously, inferred from effect on brain tumor
Protocol: For the intracranial-orthotopic xenograft mouse model, U-87MG cells (8×10^4) were engrafted into a nude mouse brain using a stereotactic device. […] Mice were subjected to MRI and then sacrificed. Brains were excised and processed for IHC. Tumor volume was analyzed using VivoQuant 2.10 software.
25 and 32 days later, tumor growth was monitored by MRI (FIG. 11A).

[1] = tested on: glioma-derived stem cell (GSC) line G7; assay: Cell death induction in G7 glioma-derived stem cells (PI staining, flow cytometry); type: cell-based, human; details: n=3, read-out: concentration for inducing 50% cell death (EC50)
Protocol: The G7 GSC cell line was grown using specific glioblastoma stem cell medium, as described previously (Pollard S M et al 2009. Cell Stem Cell. 4(6):568-580.)
The GSC-specific markers, Sox2, Musashi, and Nestin were highly expressed in G7, as compared to U-87MG cells, containing about 1% GSCs, thus confirming the stemness of the cells (FIG. 7B, 7C). Klf4 was expressed in both cell lines with its level in G7 slightly higher. […] Similar results were obtained when apoptosis was assayed using annexinV/PI staining and FACS analysis (FIG. 7E).

PANC-2 cells = assay: Cell death induction in PANC-2 pancreatic cancer cells (PI staining, flow cytometry); type: cell-based, mouse; details: PANC-2, serum-free medium, 6 h
Protocol: as §1, §2, §3

[2] = Peptide solubility (soluble peptide in supernatant, absorbance at 280 nm); type: physicochemical
Protocol: The peptides were dissolved in 100% DMSO then diluted by about 10-fold to reduce DMSO to 10-11% and the peptide to 4.4 or 4 mM, and the amount of the soluble peptide was analyzed in the supernatant (SUP) following centrifugation to remove insoluble peptide.
The peptides were synthesized by GL Biochem (Shanghai, China) to >95% purity. […] Then the solutions were diluted to peptide concentration of 20 mg/ml (4.86 mM) by adding while mixing 95 μl of distilled water and the diluted solutions were incubated in 37° C. water bath for 30 minutes to allow further solubilization until the solutions became clear. The peptide solutions were then centrifuged for 5 min at 15,000 g and the supernatant of each preparation was transferred to fresh Eppendorf tube with low binding capacity. Aliquots of the obtained solution were taken for further analysis of peptide concentration.
Peptides were dissolved as described hereinabove. Concentration examined was 4 mM; solvent used was DDW/10% DMSO/150 mM NaCl (NaCl added later at a final concentration of 150 mM) as a common physiologically compatible solution for drug administration.
The molecular weight of Tf-D-LP=4111.67 g/mol. […] 8.5 μl DMSO 100% were added to the peptide to form a concentration of 40 mM, and the solution was incubated in a water bath at 37° C. for 15 min until the solution became clear. The solution obtained was diluted by about 10-fold with DDW reaching a final concentration of 4.4 mM (11.1% DMSO), incubated in a water bath at 37° C. for 15 min, and then incubated overnight at 4° C. […] Peptide concentration in each step was analyzed.
Peptide concentration was determined from the absorbance at 280 nm following its denaturation and using the following calculation:
Weight/volume (mg/ml) concentration was calculated according to the equation: mg peptide/ml=(AU×DF×Mw)/[(TrypW #×5560)+(TyrY #×1200)]: • AU—peptide absorbance measured • DF—dilution factor • Mw—Molecular weight • TrypW #—number of Tryptophan in the peptide sequence • TyrY #—number of Tyrosine in the peptide sequence

A549 = assay: Peptide storage stability, read out as death of A549 cells (PI staining, FACS); type: cell-based; details: for activity kept after storage: assayed at 10 μM on A549
Protocol: The peptide (0.5 mM in 5% DMSO) was incubated at −20° C., 4° C. or 25° C. for the indicated time, and then assayed (at 10 μM) for its capability to induce death of A549 using PI staining and FACS analysis. In untreated cells, cell death was 3%, while with the peptide, cell death was over 90% (n=2).
The assay conditions were as described in FIG. 8A above.

SMILES	EC50 (GL-261 cells)	EC50 (B16F10.0 melanoma cells)	EC50 (THP-1 cells)	EC50 (BNL1ME cell line)	EC50 (PANC-1 cells)	EC50 (U-87MG)	crossing of the blood brain barrier (BBB) (U-87MG cells)	EC50 [1]	EC50 (PANC-2 cells)	solubility in 100% DMSO [2]	activity kept after storage (A549; 0.5 mM in 5% DMSO stored at 4° C. or 25° C.)	activity kept after storage (A549; 0.5 mM in 5% DMSO stored at −20° C.)	cell death (A549; A549, 10 μM peptide, n=2, untreated cells 3%)	maximal cell death induction (BNL1ME cell line)	solubility in 100% DMSO ([2]; 100% DMSO)	soluble peptide out of the total peptide content ([2]; DMSO concentration reduced to 10%, about 4 mM peptide)
CC[C@H](C)[C@H](NC(=O)[C@H](Cc1ccc(O)cc1)NC(=O)[C@@H]1CCCN1C(=O)[C@H](CCCNC(=N)N)NC(=O)[C@H](Cc1c[nH]cn1)NC(=O)[C@@H](CO)NC(=O)[C@@H](Cc1c[nH]c2ccccc12)NC(=O)[C@H](NC(=O)[C@@H](Cc1c[nH]c2ccccc12)NC(=O)[C@@H](CCC(=O)O)NC(=O)[C@@H](CCCCN)NC(=O)[C@@H](CCCCN)NC(=O)[C@@H](CC(C)C)NC(=O)[C@@H](CCC(=O)O)NC(=O)[C@H](NC(=O)[C@@H](C)NC(=O)[C@H](NC(=O)[C@@H](CC(N)=O)NC(=O)[C@@H](CC(C)C)NC(=O)[C@@H](C)NC(=O)[C@@H](Cc1c[nH]c2ccccc12)NC(=O)[C@H](NC(=O)[C@@H](C)NC(=O)CNC(=O)[C@@H](CC(N)=O)NC(=O)[C@@H](CO)NC(=O)[C@@H](CC(N)=O)NC(=O)[C@@H](CCCCN)NC(=O)[C@@H](Cc1c[nH]c2ccccc12)NC(=O)[C@H](NC(=O)[C@@H](Cc1c[nH]c2ccccc12)NC(=O)[C@H](N)CCCCN)[C@H](C)O)[C@H](C)O)C(C)C)[C@H](C)O)[C@H](C)O)C(=O)N[C@@H](C)C(=O)N[C@@H](Cc1c[nH]cn1)C(=O)O [Retro-Tf-D-LP4, D-Lys-D-Trp-D-Thr-D-Trp-D-Lys-D-Asn-D-Ser-D-Asn-D-Gly-D-Ala-D-Thr-D-Trp-D-Ala-D-Leu-D-Asn-D-Val-D-Ala-D-Thr-D-Glu-D-Leu-D-Lys-D-Lys-D-Glu-D-Trp-D-Thr-D-Trp-D-ser-His-Arg-Pro-Tyr-Ile-Ala-His]	2.2 µM	7 µM	4.5 µM	2.5 µM	~4 µM	1.5 ± 0.3 µM	can cross the BBB	2.5 ± 0.3 µM	~4 µM	high solubility						
CC[C@H](C)[C@H](NC(=O)[C@H](C)NC(=O)[C@@H](N)Cc1c[nH]cn1)C(=O)N[C@@H](Cc1ccc(O)cc1)C(=O)N1CCC[C@H]1C(=O)N[C@@H](CCCNC(=N)N)C(=O)N[C@@H](Cc1c[nH]cn1)C(=O)N[C@H](CO)C(=O)N[C@H](Cc1c[nH]c2ccccc12)C(=O)N[C@@H](C(=O)N[C@H](Cc1c[nH]c2ccccc12)C(=O)N[C@H](CCC(=O)O)C(=O)N[C@H](CCCCN)C(=O)N[C@H](CCCCN)C(=O)N[C@H](CC(C)C)C(=O)N[C@H](CCC(=O)O)C(=O)N[C@@H](C(=O)N[C@H](C)C(=O)N[C@@H](C(=O)N[C@H](CC(N)=O)C(=O)N[C@H](CC(C)C)C(=O)N[C@H](C)C(=O)N[C@H](Cc1c[nH]c2ccccc12)C(=O)N[C@@H](C(=O)N[C@H](C)C(=O)NCC(=O)N[C@H](CC(N)=O)C(=O)N[C@H](CO)C(=O)N[C@H](CC(N)=O)C(=O)N[C@H](CCCCN)C(=O)N[C@H](Cc1c[nH]c2ccccc12)C(=O)N[C@@H](C(=O)N[C@H](Cc1c[nH]c2ccccc12)C(=O)N[C@H](CCCCN)C(=O)O)[C@H](C)O)[C@H](C)O)C(C)C)[C@H](C)O)[C@H](C)O [Tf-D-LP4, His-Ala-Ile-Tyr-Pro-Arg-His-D-Ser-D-Trp-D-Thr-D-Trp-D-Glu-D-Lys-D-Lys-D-Leu-D-Glu-D-Thr-D-Ala-D-Val-D-Asn-D-Leu-D-Ala-D-Trp-D-Thr-D-Ala-D-Gly-D-Asn-D-Ser-D-Asn-D-Lys-D-Trp-D-Thr-D-Trp-D-Lys]	3.3 µM		8 µM	2.7 µM							75%	full activity	over 90%	70%	high solubility	about 10%
